Data as given in patent US20220249525A1, “Fatty Acid Compounds for Prevention and Treatment of Neurodegenerative Disorders” (T OMEGA AS, priority 2019, published 2022).
Where a name gives a salt, the structure may show the parent alone.

How the values were obtained:
SH-SY5Y cells [1] = test: WST-1 cell viability assay in SH-SY5Y cells; type: cell-based; settings: 4 days
Method: (§1) The fatty acids (FAs) TTA, tr-TTA, N-TTA, tr-N-TTA and (PA) were complexed with FBS following the same procedure, differing only in final stock concentration, due to variation in solubility. Approximately 0.07 g of FA was weighed in a 10 ml sterile serum tube (BD Vacutainer®, catalog no. 368430) and dissolved in sterile filtrated 0.1 M sodium hydroxide (NaOH) of a volume giving 25 mM FA, controls without FA were made, containing only NaOH and FBS. A syringe (Sterican®, catalog no. 4657577) was pierced through the rubber cap of the serum tube, and the tube was placed in an 80° C. water bath until the FAs were dissolved. Each FA-solution was then diluted in inactivated FBS to stock concentration 1 mM (N-TTA, tr-N-TTA), and 2 mM by adding the FA to a volume of 100% FBS after heating the FBS to 45° C. in a water bath. The transfer of FA to FBS had to be executed controlled and swiftly to avoid the formation of precipitates. If any precipitates in the solution were visible, the FA and a new volume of FBS were reheated, and the procedure performed again. Following successful complexation, the stock solutions were stored at −20° C. in 1 ml aliquots (CryoPure tube, Sarstedt AG & Co, Nümbrecht, Germany).
(§2) The WST-1 cell proliferation assay was performed using the kit from Roche (table 4.2.) and its accompanying procedure (version 16, February 2011) (134). The number of cells seeded to each well in the 96-well plates (Corning Inc., catalog no. 353072) varied depending on the treatment time and cell type (table 3.).
(§3) Cell suspension and medium were then transferred to each well in a volume of 100 μl in total. Subsequently, the plates were incubated for 24 hours to make the cells settle. The next day, 100 μl with FA complexed with FBS or diluted in DMSO was added to row A or B in the 96-well plate to give a defined concentration. The solution was then mixed with a pipette, and 100 μl of the medium with FA was transferred to the next well in the same column, mixed by pipetting up and down at least five times before 100 μl was transferred again to the next well in the column. This procedure was repeated until the second last, or last well in each column was reached, making a series of two-fold dilution of the FAs in the cell medium. Two parallels were performed for every treatment per run. After the addition of FAs, the plates were incubated for 24-96 hours depending on the length of the treatment.
Following the FA-treatment, the cells were studied under a microscope to ensure that visual observations matched the measured absorbance and cell activity in the assay. Subsequently, 10 μl WST-1 reagent was added to each well, and the plates were incubated for 3 hours. Due to high activity in the HuH-7 cell line, the WST-1 reagent was diluted 1:1 with PBS. Before the measurement of absorbance, the plates were placed on a shaker for 1 minute ensuring thoroughly mixing of the wells. The plates were then put straight into the spectrophotometer (SpectraMax Plus 384 Microplate Reader, Molecular Devices Corporation, San Jose, Calif., USA) to perform the measurements. […] The absorbance of the samples was measured at 450 nm, and the reference wavelength was set to 650 nm. For each well, the measured absorption at 650 nm was subtracted from the absorption at 450 nm. The measured absorbance for the treated cells was then compared to the controls (blank) containing only cells and growth medium.

SH-SY5Y cells [2] = test: Gene expression (qPCR) in SH-SY5Y cells treated with fatty acids; type: cell-based
Method: (§4) Cells from both cell lines were obtained and counted as previously mentioned. After cell counting, the cells were seeded to 6-well plates (Corning Inc., catalog no. 353046) with a density dependent on total treatment time and cell line. The cells were seeded in 3-4 ml medium and placed in the incubator for approximately 24 hours for the cells to settle. Following the 24 hours, the FAs were thawed in room temperature, the cell medium was aspirated off, and a new, exact volume was added to each well, depending on the final concentration of FA or control. Before the addition of FAs, the FA-solutions were mixed by pipetting up and down several times. The FAs were then added with an exact volume to the wells giving a total volume of 3 ml or 4 ml depending on treatment time, yielding the target concentration of FA in well. After the addition of FA to one well, the solution was mixed by carefully rotating the 6-well plate. The same procedure was followed for all the wells, differing only in FA or control added, and the ratio of medium and FA depending on treatment dose. During cell treatment, the plates were incubated under the same conditions as previously mentioned. PBS was placed between the wells to reduce liquid-loss due to evaporation. After treatment and incubation for 24-96 hours, the procedure of RNA purification was followed.
(§5) Purification of total RNA from treated HuH-7- and SH-SY5Y cells was done following the protocol “Purification of Total RNA from Animal Cells using Spin Technology” described in the RNeasy Mini Handbook (fourth edition, June 2012) with some modifications. The RNeasy Mini Kit was used.
(§6) Frozen RNA samples were thawed on ice or used directly after the RNA purification protocols. All samples from the cell lines were diluted with nuclease-free water to 50 ng/μl, and all samples from brain tissue were diluted to 200 ng/μl prior to cDNA synthesis. UHRR and UMRR were initially at 50 ng/μ1 (table 4.3.). The reactants (table 4.6.) used in the RT-mix were thawed on ice and mixed following the protocol “High Capacity cDNA Reverse Transcription Kits” (Applied Biosystems, June 2010) (153). From the master mix containing the total volume of the mixed reactants, 10 μl was added to each sample tube placed on ice already containing 10 μl of the diluted RNA. The samples with a total volume of 20 μl were mixed by pipetting up and down several times. In addition, samples without reverse transcriptase (−RT) were made, using nuclease-free water to replace the RT volume. The tubes were placed on ice until they were loaded to the GeneAmp* PCR system 2700 (Applied Biosystems, Foster City, Calif., USA) and the program described in table 4.7. was used. After the procedure, all samples were diluted to 10 ng/μl by the addition of nuclease-free water and placed for storage at 4° C. until further use.
The mix for the samples (and standard curves) was made using TaqMan Gene Expression Master Mix (table 4.8.), probes specific for the genes in question, and nuclease-free water. −RT and NTC samples were always used in the experiments. […] The prepared samples were placed in the PCR cycler (ABI PRISM 7900HT Sequence Detection System, Applied Biosystems) for quantification, using the 9600 Emulation Thermal Cycler Protocol (table 4.9.) in the software SDS 2.3 (Applied Biosystems, Foster City, Calif., USA).
(§7) When performing the qPCR reactions, all samples were analyzed in triplicates, and the mean value was used in further analysis. […]

HuH-7 cells [3] = test: WST-1 cell viability assay in HuH-7 cells; type: cell-based; settings: 2 days
Method: as §1, §2, §3
Following the FA-treatment, the cells were studied under a microscope to ensure that visual observations matched the measured absorbance and cell activity in the assay. Subsequently, 10 μl WST-1 reagent was added to each well, and the plates were incubated for 3 hours. Due to high activity in the HuH-7 cell line, the WST-1 reagent was diluted 1:1 with PBS. Before the measurement of absorbance, the plates were placed on a shaker for 1 minute ensuring thoroughly mixing of the wells. The plates were then put straight into the spectrophotometer (SpectraMax Plus 384 Microplate Reader, Molecular Devices Corporation, San Jose, Calif., USA) to perform the measurements. The accompanying software was used (SoftMax Pro, Molecular Devices Corporation, San Jose, Calif., USA) to obtain the results. The absorbance of the samples was measured at 450 nm, and the reference wavelength was set to 650 nm. For each well, the measured absorption at 650 nm was subtracted from the absorption at 450 nm. The measured absorbance for the treated cells was then compared to the controls (blank) containing only cells and growth medium.

HuH-7 cells [4] = test: Gene expression (qPCR) in HuH-7 cells treated with fatty acids; type: cell-based
Method: as §4, §5, §6
The mix for the samples (and standard curves) was made using TaqMan Gene Expression Master Mix (table 4.8.), probes specific for the genes in question, and nuclease-free water. −RT and NTC samples were always used in the experiments. The master mix for each gene was made according to table 4.8. and added to tubes together with the cDNA. The tubes were vortexed and centrifuged briefly before the samples were added to a 384-well plate (Sarstedt AG & CO, catalog no. 72.1984.202) with the use of a pipette. For every sample, three parallels of 9 μl were used. After the addition of all the samples to the plate, a plastic cover (Sarsted AG & CO, catalog no. 95.1994) was used to seal the plate before centrifuging it for 2 minutes at 700 g. The prepared samples were placed in the PCR cycler (ABI PRISM 7900HT Sequence Detection System, Applied Biosystems) for quantification, using the 9600 Emulation Thermal Cycler Protocol (table 4.9.) in the software SDS 2.3 (Applied Biosystems, Foster City, Calif., USA).
as §7

[5] = system: MOLM-13 human acute leukemia cells; test: WST-1 viability of MOLM-13 cells; type: cell-based; settings: for Abs450 nm (WST-1 viability): complexed to BSA
Method: MOLM-13 suspension cells were diluted and added to 96-well plates (15.000 cells/well).
The modified fatty acids TTA, tr-TTA, TDG (TGH) and tr-TDG (tr-TGH) were complexed to bovine serum albumin (BSA), and 10-fold dilutions of the fatty acids or BSA control were added to the wells in duplicate. Two plates were run in parallel, and WST-1 was added to the cells after 48 (plate 1) and 72 hours (plate 2). Absorbance at 450 nm measured to assess viability of the cells.

[6] = 4 week high-fat diet study, body weight, adipose tissue, plasma glucose and cholesterol; type: in vivo, C57BL/6 mice; settings: mice, N-TTA 750 mg/kg or triple-N-TTA 350 mg/kg body weight, 4 weeks
Method: This animal study was conducted according to the Guidelines for the Care and Use of Experimental Animals, and the protocol was approved by the Norwegian Food Authorities. 7 to 8-weeks old male C57BL/6 mice, were obtained from Janvier Labs. After one week of acclimatization, they were divided into 3 groups of 7 animals. One group was fed a control high-fat (25 w/v) diet while the two remaining groups were fed a high-fat diet supplemented with either N-TTA (750 mg/kg body weight) or triple-N-TTA (350 mg/kg body weight). After 4 weeks of feeding, the mice were anaesthetized with Isofluorane (Forane, Abbot Laboratories Ltd, Illinois, USA) inhalation under fasting conditions, and blood and liver samples were collected. […]
Glucose and lipids in plasma was measured on the Hitachi 917 system (Roche Diagnostics, GmbH, Mannheim, Germany) using kits from Roche Diagnostics or DiaSys.

[7] = 125 μM complexed with FBS, 24 hours
[8] = 25 μM dissolved in DMSO, 4 days

## CCCCCCCCCCCCCCCC(=O)O [PA]
SH-SY5Y cells [1]; 500 μM
  WST-1 activity: the same as the control
SH-SY5Y cells [1]; concentrations up to 250 μM
  WST-1 activity: stimulated activity
SH-SY5Y cells [2]; [7]
  relative gene expression of CPT-2 vs control: No change
  relative gene expression of CYCS vs control: No change
  relative gene expression of TFAM vs control: No change
  relative gene expression of UCP3 vs control: No change
SH-SY5Y cells [2]; additional treatments, 4 days, reference 18 S
  CYCS gene expression vs FBS-control: small decrease
HuH-7 cells [3]; 62.5 μM, complexed with FBS
  WST-1 activity compared to untreated cells: ~150%
HuH-7 cells [4]; [8]
  relative expression of CPT-2 compared to control: 0.65
  relative expression of UCP3 compared to untreated cells: approximately 0.5
HuH-7 cells [4]; 125 μM complexed with FBS, 1 day
  increase in CPT-2 expression relative to control: 1.5 fold
HuH-7 cells [4]; 125 μM complexed with FBS, 2 days
  increase in CPT-2 expression relative to control: did not result in increased expression
HuH-7 cells [4]; 125 μM complexed with FBS, 4 days
  increase in CPT-2 expression relative to control: did not result in increased expression
HuH-7 cells [4]; 125 μM complexed with FBS, all treatment periods (1, 2, 4 days)
  increase in relative expression of UCP3: did not induce any changes

## CC#CCCCCCCCCCCCNCC(=O)O [tr-N-TTA, Tetradec-12-yn-1-ylglycine hydrochloride]
[5]; 48 hours, 0.0625 mM
  Abs450 nm (WST-1 viability): 0.4964
[5]; 48 hours, 0.125 mM
  Abs450 nm (WST-1 viability): 0.1452
[5]; 48 hours, 0.25 mM
  Abs450 nm (WST-1 viability): 0.1679
[5]; 48 hours, 0.5 mM
  Abs450 nm (WST-1 viability): 0.2177
[5]; 48 hours, 1 mM
  Abs450 nm (WST-1 viability): 0.2833
[5]; 48 hours, 2 mM
  Abs450 nm (WST-1 viability): 0.5009
[5]; 72 hours, 0.03125 mM
  Abs450 nm (WST-1 viability): 0.3769
[5]; 72 hours, 0.0625 mM
  Abs450 nm (WST-1 viability): 0.4452
[5]; 72 hours, 0.125 mM
  Abs450 nm (WST-1 viability): 0.13
[5]; 72 hours, 0.25 mM
  Abs450 nm (WST-1 viability): 0.1384
[5]; 72 hours, 0.5 mM
  Abs450 nm (WST-1 viability): 0.1964
[5]; 72 hours, 1 mM
  Abs450 nm (WST-1 viability): 0.366
[5]; 72 hours, 2 mM
  Abs450 nm (WST-1 viability): 0.426
[5]; MOLM-13, compared with TTA and tr-TTA
  toxicity to leukemic cells: toxic to leukemic cells at a lower concentration than TTA and tr-TTA
SH-SY5Y cells [1]; 500 μM
  WST-1 activity compared to untreated cells: 84%
SH-SY5Y cells [1]; all concentrations except 500 μM
  WST-1 activity compared to untreated cells: ~100%
[6]
  LDL cholesterol (plasma): reduced
  body weight gain vs high-fat control diet: significantly lower
  cholesterol esters (plasma): reduced
  epididymal white adipose tissue depot: reduced in size
  free cholesterol (plasma): reduced
  perirenal white adipose tissue depot: reduced in size
  total cholesterol (plasma): reduced
[6]; fasting
  blood glucose vs high-fat control diet: significantly lower
HuH-7 cells [3]; 16 μM, complexed with FBS
  WST-1 activity compared to untreated cells: 109%
HuH-7 cells [3]; 500 μM
  WST-1 activity compared to no treatment: ~90%
HuH-7 cells [3]; all concentrations
  WST-1 activity compared to untreated cells: around 100%
